Measurements as given in patent US4933368A, “N-phenylbenzamide derivatives” (Godecke Aktiengesellschaft, priority 1983, dated 1990).
Where two headings read alike, the source gives them in different places.

Legend:
[1] = system: murine tumors and human tumor xenografts; experiment: Antineoplastic activity in tumor-carrying animals, general statements; format: in vivo, mice
Pentetrazole-convulsion = Pentetrazole-convulsion model; format: in vivo; conditions: Mus musculus, po; i.g., mice
Distribution coefficient = format: physicochemical; conditions: n-octanol/water pH 7.4/20° C.; read-out: log VK (distribution coefficient)
Description: This is also the case with intragastric application, as shown by certain pharmacological effects.

[2] = system: Mammary adenocarcinoma 25; experiment: Mammary adenocarcinoma 25 (CCTM test); format: in vivo, mice
Method: The CCTM assay assesses the antitumor activity of a test agent by measurement of the treatment-induced delay of tumor growth. Tumor growth delay is used because, unlike T/C type assays, the measured parameter is independent of time.
Test animals are Fl hybrid mice derived from the inbred strain of tumor origin. After the required mice are randomized, they receive SC implants of either trocar fragments (30-50 mg) or appropriate dilutions of tumor brei on Day 0. Samples for each donor tumor or from the final brei are incubated in thioglycolate media as a check for gross contamination of the tumor material. After tumor inoculation, the test mice are rerandomized and distributed to test group as per the specific test protocol.
Survival is checked daily for each test group. Both the number dead and the number living are counted and recorded. All dead mice are autopsied to ascertain the probable cause of death (drug or tumor). Clinical signs are observed and recorded for all test groups. Individual body weights are recorded at least weekly as directed in the specific test protocol. Each tumor is measured with calipers as per the protocol (usually two to three times/week).
Any surviving animal with a tumor that is larger than the smallest lethal control tumor for two successive measurements will be sacrificed unless:
This time may be calculated as:
Td=tumor volume doubling time (days), calculated from the slope of a long-linear least squares fit of the growth curve between 63 and 1000 mg for each control tumor. The mean value for the control group is used for all other calculations that require Td.
T,C=median time in days for the tumor in a given group to reach a predetermined evaluation size (usually 750 mg). T=treated groups/C=control group. These values are calculated by log/linear interpolation between the nearest tumor measurements on either side of the evaluation size.
T-C=tumor growth delay in days (treatment minus control).
Gross Log Kill=total number of logs of tumor cell kill produced by the given treatment regimen.
Gross Kill=(T-C)/3.32*Td)
Net Log Kill=the difference in logs between the tumor burden after the last treatment and the initial pretreatment burden. Net kill reflects the effectiveness of the overall therapy accounting for the growth of the tumor between individual treatments of the therapeutic regimen. Net kill allows valid comparisons of different treatment regimens, i.e., those with different durations of treatment that allow different amounts of tumor growth during therapy.
Net Kill=[(T-C)-DRx]/(3.32*Td)
All tumor-free survivors (cures) are excluded from the calculation of T-C and cell kill values. Thus, all calculated end points represent the response of the treatment failures.

[3] = system: MNU-induced rat mammary tumor; experiment: MNU-induced mammary tumor (CCTR); format: in vivo; conditions: for % T/C / Rating: PO, 4 times daily, Days 1-5 for 5 weeks
Description: (§1) Doses just under the acutely lethal dose can be given indefinitely (for more than 30 days), during which the treated animals regain their initial weight loss.

Electro-convulsion = experiment: Maximal electroconvulsion test; format: in vivo; conditions: Mus musculus, po; i.g., mice
L1210 leukemia = format: in vivo, CD2 mice; conditions: for Mean Survival Time: controls 8; for % Increase in Mean Survival Time (toxic death): mouse, in vivo, po
Description: Preparation: As suspension freshly prepared
before each administration
Route of Oral, suspended in 0.8%
administration: Methocel
Volume: 0.01 per gram body weight
daily for 9 days, if not
L 1210/Rij adaptation of L1210 leukemia in CD2 mice (C57B1×DBA2,Fl hybrid). On the day before administration of the substance 10^5 leukemic cells are inoculated intraperitoneally. The cages are controlled 2×X daily for dead animals. The terminal point is the mean survival of five mice/dosage compared with ten untreated controls.

[4] = system: peripheral leukocytes and lymphocytes; experiment: Influence on peripheral leukocytes and lymphocytes in rhesus monkeys; format: in vivo; conditions: 1× daily 10 mg/kg i.g.
Method: Dosage: 1×daily 10 mg/kg i.g.
FIG. 1: Rhesus monkey ZE, .female.
FIG. 2: Rhesus monkey YL, .female.

allogeneic skin grafts = experiment: Trial I, skin graft survival test in rats (recipient Long Evans, donor Lewis), vs azathioprine + methylprednisolone; format: in vivo
Method: Route of Intragastric via stomach tube,
suspended in 0.8% Methocel
Volume: 0.01 ml per gram body weight and dose
Trial I/from Day -3 before grafting to Day +6
Trial I/10 mg/kg over 6 days, afterwards 5 mg/kg
Two allogeneic skin grafts from a donor rat are transferred to a receiving rat from an unrelated inbred strain. The panniculus carnosus attached to the graft may either be removed by dissection (suprapannicular graft) or be left on the graft (subpannicular graft). Grafting is conducted on Day 0 under light ether narcosis subsequent to shaving and cleanup of the grafting sites. The grafts are fixed on the graft receptor sites by dressing with a suitable bandage. From Day +9 a protective colar is placed on the animals, the bandage removed, and the status of the grafts daily controlled. The assessment of the graft function is conducted by means of a graduation scale, which allows for differentiation of rejection corresponding to a three-degree of severity score. The trial ends on the day when 50% of the animals of one group have rejected both grafts. The lengthening of the graft survival time in comparison to the controls is determined in days.
Recipient: Long Evans .male., Donor: Lewis .male.. Two suprapannicular grafts were transferred from a donor to a recipient.

[5] = system: HCT-8 human colon xenograft; experiment: HCT-8 human colon xenograft in nude mice (CCTM test); format: in vivo
Description: as §1
The two types of assays used were the standard CCTM test for solid tumors and the CCLS test for leukemia.
The CCTM assay assesses the antitumor activity of a test agent by measurement of the treatment-induced delay of tumor growth. Tumor growth delay is used because, unlike T/C type assays, the measured parameter is […].
Test animals are Fl hybrid mice derived from the inbred strain of tumor origin. […]
Test agents are dissolved or suspended in any of several vehicles and are administered by the routes and treatment schedules specified on the test protocol. All animals are monitored for signs of acute toxicity and side effects.
Survival is checked daily for each test group. Both the number dead and the number living are counted and recorded. […] Clinical signs are observed and recorded for all test groups. Individual body weights are recorded at least weekly as directed in the specific test protocol. Each tumor is measured with calipers as per the protocol (usually two to three times/week). […]
Td=tumor volume doubling time (days), calculated from the slope of a long-linear least squares fit of the growth curve between 63 and 1000 mg for each control tumor. […]

[6] = intragastric / oral, vs untreated control

Nc1ccc(C(=O)Nc2ccccc2N)cc1 [Substance A, 4-Amino-N-(2'-aminophenyl)-benzamide]
tumor regression late in an extended treatment regimen ([1]; after just two days' rest): partial regression of tumors | average survival time of tumor-carrying mice [1, 6]: significant increase in the average survival time | retardation in tumor growth [1, 6]: distinct retardation in the growth of the tumor | schedule dependence of activity ([1]; mouse, in vivo): schedule-dependent, with once daily treatment superior to either more highly fractionated or to intermittent regimens | cures and cell kills ([1]; oral, refractory tumor models in mice): significant number of cures and cell kills | anticancer activity, overall ([1]; spectrum of preclinical tumor models): significant activity against a spectrum of preclinical tumor models | ED50 (Pentetrazole-convulsion): 44 mg/kg | logD (Distribution coefficient): 2.2 | % T/C ([2]; SC PO, Days 3-24, 50 mg/kg): 0% | cures ([2]; SC PO, Days 3-24, 50 mg/kg, 6 out of 10 cures): 6/10 | (T-C) tumor growth delay ([2]; SC PO, Days 25-36, 50 mg/kg): 16 days | Cell Kill Net ([2]; SC PO, Days 25-36, 50 mg/kg): 1.6 logs | anticancer activity ([2]; mammary 25): significant anticancer activity has been demonstrated and confirmed | anticancer activity ([3]; MNU-induced rat mammary tumor): significant anticancer activity has been demonstrated and confirmed | % T/C ([3]; 7.5 mg/kg): 3.5% | Rating ([3]; 7.5 mg/kg): AA (≤10% T/C High Activity) | % T/C ([3]; 10 mg/kg): 7.8% | Rating ([3]; 10 mg/kg): AA (≤10% T/C High Activity) | ED50 (Electro-convulsion): 30 mg/kg | Mean Survival Time (L1210 leukemia; 4 × 180 mg/kg PO, n = 5): 5 days | Mean Survival Time (L1210 leukemia; 4 × 240 mg/kg PO, n = 5): 5 days | Mean Survival Time (L1210 leukemia; 7 × 120 mg/kg PO, n = 5): 6 days | % Increase in Mean Survival Time (L1210 leukemia; 9 × 60 mg/kg PO, n = 5): 38% | Mean Survival Time (L1210 leukemia; 9 × 60 mg/kg PO, n = 5): 11 days | assessment of activity (L1210 leukemia; moderate dosage): significant activity | % Increase in Mean Survival Time (toxic death) (L1210 leukemia; 120 mg/kg): toxic death | % Increase in Mean Survival Time (toxic death) (L1210 leukemia; 180 mg/kg): toxic death | % Increase in Mean Survival Time (toxic death) (L1210 leukemia; 240 mg/kg): toxic death | reduction of the peripheral lymphocytes [4]: simultaneous distinct reduction of the peripheral lymphocytes | effect compared with standard medication (allogeneic skin grafts; Trial I, vs azathioprine and methylprednisolone): superior to an immunosuppressive standard medication comprising azathioprine and methylprednisolone | effect compared with comparison medication (allogeneic skin grafts; rats, both trials, far smaller substance quantities): at least equally as effective as the comparison medication | anticancer activity ([5]; HCT-8 human colon tumor xenograft): significant anticancer activity has been demonstrated and confirmed | (T-C) tumor growth delay ([5]; SC PO, Days 9-24, 69 mg/kg): 13 days
